Experimental findings from US11780842B2, “TYK2 pseudokinase ligands” (Ventyx Biosciences, Inc., priority 2019, dated 2023) are described below.

The IC50 is the concentration that inhibits the measured activity by half. A higher IC50 goes with weaker potency.

The subject of this test is IFN-a/Jak1Tyk2. The test is described as follows: Co-stimulation assay in lysed whole blood: IFNa (JAK1/TYK2) stimulated STAT1 phosphorylation. It counts as cell-based. The conditions noted are these: lysed human whole blood, IFNa 100 ng/mL (co-stimulated with GM-CSF 10 ng/mL), pSTAT1 by flow cytometry. On the procedure: Example 4: Co-Stimulation Assay in Lysed Whole Blood; JAK2: GM-CSF Stimulated STATS Phosphorylation and JAK1/TYK2 Stimulated STAT1 Phosphorylation Assay
Human Blood Lysis Using Abcam's RBC Lysis Buffer
Dilute RBC lysis buffer to 1× in distilled water. Add 2 mL blood to 38 mL of 1×RBC-lysis buffer. Incubate for 15 mins at RT, in dark. Spin at 300 g, 5 mins, to collect the pellet. Re-lyse if necessary. Re-suspend pellet in 5 mL of cRPMI.
Compound and Cytokine Treatment
Aliquot 80 μL of lysed human blood in to wells of 96 deep-well plate. Add 10 μl of (10× conc.) of different concentrations of compounds to all wells except controls (unstained and unstimulated) and mix it with the help of 100 uL multichannel. Add 10 uL of RPMI media in controls. For dilution of compounds and dilution range please refer Appendix. Incubate on water bath or CO2 incubator for 1 hour at 37° C. Add 10 μL of (10× conc.) of cytokine mix (GM-CSF and IFNa) (final conc. 10 ng/mL of GM-CSF and 100 ng/mL of IFNa) to each well except unstimulated and unstained controls and incubate further for 20 minutes on water bath at 37° C.
Add 900 μL of prewarmed 1× Fix/Lyse solution (Appendix) and mix it properly using 1000 μl multichannel, incubate further on water bath at 37° C. for 10 minutes (which includes time of addition). Centrifuge at 800× g for 5 minutes at 40° C.; remove 900 uL of supernatant and add 900 μL of 1×PBS. Centrifuge at 800× g for 5 minutes at 40° C., remove 900 μL of supernatant. Wash one more time with 900 μL of PBS (optional) and resuspend pellets in 100 uL of PBS.
Disrupt the pellet by gentle tapping and resuspend in 1000 μL of BD Phosflow Perm Buffer III and incubate plate on ice for 30 minutes. Centrifuge plate at 800× g for 5 minutes at 40° C. Wash two more times with 1000 μL of BD Pharmingen Stain Buffer.
Disrupt the pellet by gentle tapping. Resuspend pellets in 100 uL of Stain Buffer and add 5 μL of pSTAT5_AF488 Ab and 5 uL of pSTAT1_PE in all wells except unstained control and mix properly using 200 μl multichannel, incubate overnight at […]. Add 900 μL of wash buffer and centrifuge at 1800 rpm for 3 minutes at […]. Wash one more time with 1000 μL of BD Pharmingen Stain Buffer. Finally resuspend the pellet in 300 uL of BD Pharmingen Stain Buffer. Transfer the cells to 96-well v-bottom plate and acquire the cells in Beckman Coulter CytExpert. Acquiring cells in Flow Cytometer: Keep the threshold value to 250 and cell concentration should not exceed 100-500 cells/μL. Acquire at least 5,000-10,000 cells.
RPMI 1640 Complete Medium: RPMI 1640 media+10% FBS.
Cytokine dilution: 1) GM-CSF Stock at 100 ug/mL. Prepare an intermediate dilution of 1 ug/mL by adding 2 uL of stock into 198 uL of cRPMI. Further dilute to 100 ng/mL by adding 100 uL of the intermediate stock to 900 uL of cRPMI. 2) IFNa Stock at 200 ug/mL. Dilute IFNa stock 1:200 by adding 5 uL of stock into the 1000 uL of 100 ng/mL GM-CSF working stock as above to give a combined working stock of 1000 ng/mL of IFNa and 100 ng/mL GM-CSF (lox). Keep it on ice until used.
Lyse/Fix buffer preparation: Dilute 5× Lyse/Fix buffer to 1× using MQ water and keep at 37° C. until used.
BD Phosflow perm buffer III: Keep on ice/fridge.
Background: A flow cytometer gives signals particle by particle.

On to `CNc1cc2nc3c(cnn13)C(=O)NCCOc1cccc(c1)N2` [Compound 7, (1^3E,1^4E)-1^7-(methylamino)-4-oxa-2,7-diaza-1(5,3)-pyrazolo[1,5-a]pyrimidina-3(1,3)-benzenacyclooctaphan-8-one], for which the IC50 was not above 0.5 µM. For the compound `CNc1cc2nn3c(cnc13)C(=O)NCCOc1cccc(c1)N2` [Compound 12, (E)-1^8-(methylamino)-4-oxa-2,7-diaza-1(6,3)-imidazo[1,2-b]pyridazina-3(1,3)-benzenacyclooctaphan-8-one], the IC50 is 0.1 to 1 µM. Next, `CNc1cc2nc3c(cnn13)C(=O)NCC(C)(C)c1cccc(c1)N2` [Compound 13, (1^3E,1^4E)-4,4-dimethyl-1^7-(methylamino)-2,6-diaza-1(5,3)-pyrazolo[1,5-a]pyrimidina-3(1,3)-benzenacycloheptaphan-7-one]: not above 0.5 µM; `[2H]C([2H])([2H])Nc1cc2nc3c(cnn13)C(=O)NCCOc1cccc(c1)N2` [Compound 14, (1^3E,1^4E)-1^7-((methyl-d3)amino)-4-oxa-2,7-diaza-1(5,3)-pyrazolo[1,5-a]pyrimidina-3(1,3)-benzenacyclooctaphan-8-one]: not above 0.5 µM; `[2H]C1([2H])NC(=O)c2cnn3c(NC)cc(nc23)Nc2cccc(c2)OC1([2H])[2H]` [Compound 15, (1^3E,1^4E)-1^7-(methylamino)-4-oxa-2,7-diaza-1(5,3)-pyrazolo[1,5-a]pyrimidina-3(1,3)-benzenacyclooctaphn-8-one-5,5,6,6-d4]: not above 0.5 µM. For the compound `CNc1cc2nc3c(cnn13)C(=O)NCCc1cccc(c1)N2` [Compound 16, (1^3E,1^4E)-1^7-(methylamino)-2,6-diaza-1(5,3)-pyrazolo[1,5-a]pyrimidina-3(1,3)-benzenacycloheptaphan-7-one], the IC50 is not above 0.5 µM. Compound `CNc1cc2nc3c(cnn13)C(=O)NCCOc1cccc(n1)N2` [Compound 17, (1^3E,1^4E)-1^7-(methylamino)-4-oxa-2,7-diaza-1(5,3)-pyrazolo[1,5-a]pyrimidina-3(2,6)-pyridinacyclooctaphan-8-one] yielded an IC50 not above 0.5 µM. Under `CNc1cc2nc3c(cnn13)C(=O)NCCCc1cccc(c1)N2` [Compound 18, (1^3E,1^4E)-1^7-(methylamino)-2,7-diaza-1(5,3)-pyrazolo[1,5-a]pyrimidina-3(1,3)-benzenacyclooctaphan-8-one] stands 0.1 to 1 µM. Under `CNc1cc2nc3c(cnn13)C(=O)NCCOc1cc(F)cc(c1)N2` [Compound 19, (1^3E,1^4E)-3^5-fluoro-1^7-(methylamino)-4-oxa-2,7-diaza-1(5,3)-pyrazolo[1,5-a]pyrimidina-3(1,3)-benzenacyclooctaphan-8-one] stands 0.1 to 1 µM; under `CNc1cc2nc3c(cnn13)C(=O)NCCOc1ccccc1N2` [Compound 20, (1^3E,1^4E)-1^7-(methylamino)-4-oxa-2,7-diaza-1(5,3)-pyrazolo[1,5-a]pyrimidina-3(1,2)-benzenacyclooctaphan-8-one], 0.1 to 1 µM; under `CNc1cc2nc3c(cnn13)C(=O)NCCOc1cc(ccc1F)N2` [Compound 21, (1^3E,1^4E)-3^4-fluoro-1^7-(methylamino)-4-oxa-2,7-diaza-1(5,3)-pyrazolo[1,5-a]pyrimidina-3(1,3)-benzenacyclooctaphan-8-one], 0.1 to 1 µM. In the case of `CNc1cc2nc3c(cnn13)C(=O)NCCOc1ccc(F)c(c1)N2` [Compound 22, (1^3E,1^4E)-3^6-fluoro-1^7-(methylamino)-4-oxa-2,7-diaza-1(5,3)-pyrazolo[1,5-a]pyrimidina-3(1,3)-benzenacyclooctaphan-8-one], the IC50 was 0.1 to 1 µM. Under `CNc1cc2nc3c(cnn13)C(=O)NCCOc1cc(ccc1Cl)N2` [Compound 23, (1^3E,1^4E)-3^4-chloro-1^7-(methylamino)-4-oxa-2,7-diaza-1(5,3)-pyrazolo[1,5-a]pyrimidina-3(1,3)-benzenacyclooctaphan-8-one] stands 0.1 to 1 µM; under `[2H]C([2H])([2H])Nc1cc2nc3c(cnn13)C(=O)NCCCc1cccc(c1)N2` [Compound 24, (1^3E,1^4E)-1^7-((methyl-d3)amino)-2,7-diaza-1(5,3)-pyrazolo[1,5-a]pyrimidina-3(1,3)-benzenacyclooctaphan-8-one], 0.1 to 1 µM; under `CNc1cc2nc3c(cnn13)C(=O)NC(C)COc1cccc(c1)N2` (stereo not shown) [Compound 25, (1^3E,1^4E)-6-methyl-1^7-(methylamino)-4-oxa-2,7-diaza-1(5,3)-pyrazolo[1,5-a]pyrimidina-3(1,3)-benzenacyclooctaphan-8-one], 0.1 to 1 µM.

`CNc1cc2nc3c(cnn13)C(=O)NCCOc1cc(C)cc(c1)N2` [Compound 26, (1^3E,1^4E)-3^5-methyl-1^7-(methylamino)-4-oxa-2,7-diaza-1(5,3)-pyrazolo[1,5-a]pyrimidina-3(1,3)-benzenacyclooctaphan-8-one] returned an IC50 of 0.1 to 1 µM. As to `CNc1cc2nc3c(cnn13)C(=O)NCCOc1cc(c(Cl)cc1Cl)N2` [Compound 27, (1^3E,1^4E)-3^4,3^6-dichloro-1^7-(methylamino)-4-oxa-2,7-diaza-1(5,3)-pyrazolo[1,5-a]pyrimidina-3(1,3)-benzenacyclooctaphan-8-one], the IC50 was 0.1 to 1 µM.

`CNc1cc2nc3c(cnn13)C(=O)NCCOc1cc(cc(F)c1F)N2` [Compound 28, (1^3E,1^4E)-3^4,3^5-difluoro-1^7-(methylamino)-4-oxa-2,7-diaza-1(5,3)-pyrazolo[1,5-a]pyrimidina-3(1,3)-benzenacyclooctaphan-8-one] showed an IC50 of 0.1 to 1 µM. `CNc1cc2nc3c(cnn13)C(=O)NCCOc1cc(c(F)cc1F)N2` [Compound 29, (1^5E,1^4E)-3^4,3^6-difluoro-1^7-(methylamino)-4-oxa-2,7-diaza-1(5,3)-pyrazolo[1,5-a]pyrimidina-3(1,3)-benzenacyclooctaphan-8-one] showed an IC50 of 0.1 to 1 µM. `CNc1cc2nc3c(cnn13)C(=O)NCC(C)Oc1ccccc1N2` (stereo not shown) [Compound 30, (1^3E,1^4E)-5-methyl-1^7-(methylamino)-4-oxa-2,7-diaza-1(5,3)-pyrazolo[1,5-a]pyrimidina-3(1,2)-benzenacyclooctaphan-8-one] had an IC50 of 0.1 to 1 µM. Under `CNc1cc2nc3c(cnn13)C(=O)NCCOc1cc(ccc1OC)N2` [Compound 31, (1^3E,1^4E)-3^4-methoxy-1^7-(methylamino)-4-oxa-2,7-diaza-1(5,3)-pyrazolo[1,5-a]pyrimidina-3(1,3)-benzenacyclooctaphan-8-one] stands 0.1 to 1 µM; under `CNc1cc2nc3c(cnn13)C(=O)NCCOc1ccc(F)cc1N2` [Compound 32, (1^3E,1^4E)-3^5-fluoro-1^7-(methylamino)-4-oxa-2,7-diaza-1(5,3)-pyrazolo[1,5-a]pyrimidina-3(1,2)-benzenacyclooctaphan-8-one], 0.1 to 1 µM; under `CNc1cc2nc3c(cnn13)C(=O)NCCOc1cc(Cl)cc(c1)N2` [Compound 33, (1^3E,1^4E)-3^5-chloro-1^7-(methylamino)-4-oxa-2,7-diaza-1(5,3)-pyrazolo[1,5-a]pyrimidina-3(1,3)-benzenacyclooctaphan-8-one], 0.1 to 1 µM.

`CNc1cc2nc3c(cnn13)C(=O)NCCOc1cc(F)ccc1N2` [Compound 34, (1^3E,1^4E)-3^4-fluoro-1^7-(methylamino)-4-oxa-2,7-diaza-1(5,3)-pyrazolo[1,5-a]pyrimidina-3(1,2)-benzenacyclooctaphan-8-one]: the IC50 lay within 0.1 to 1 µM. Next, `CNc1cc2nc3c(cnn13)C(=O)NCCCCOc1cccc(c1)N2` [Compound 35, (1^3E,1^4E)-1^7-(methylamino)-4-oxa-2,9-diaza-1(5,3)-pyrazolo[1,5-a]pyrimidina-3(1,3)-benzenacyclodecaphan-10-one]: 0.1 to 1 µM.
